In brackets after ≈: the same amount, converted by molar mass. Read-outs that look alike come from different tables or passages of the source. Marks after values point to notes of the source that are not given here.
Tests used:
Assay type in all cases: cell-based
[1] = test system: Rhodotorula glutinis DSM 10134; experiment: MIC serial dilution assay; design: key: (-): No inhibition; settings: Rhodoturula glutinis, starting concentration 66.7 μg/mL
Protocol: (§1) The Minimum Inhibitory Concentration (MIC) of the isolated metabolites (1–8) was evaluated using serial dilution assays in a 96-well microtiter plate against a panel of Gram-positive bacteria, namely Bacillus subtilis DSM 10, Mycobacterium smegmatis ATCC 700084 and Staphylococcus aureus DSM 346; Gram-negative bacteria, including Acinetobacter baumannii DSM 30008, Chromobacterium violaceum DSM 30191, Escherichia coli DSM 1116 and Pseudomonas aeruginosa PA14 and fungal cultures of Candida albicans DSM 1665, Mucor hiemalis DSM 2656, Rhodotorula glutinis DSM 10134, Schizosaccharomyces pombe DSM 70572 and Wickerhamomyces anomalus DSM 6766, according to previously described protocols. The MTT-based cytotoxicity assay was performed against several cancer cell lines (human endocervical adenocarcinoma KB 3.1, mouse fibroblasts L929, squamous cancer A431, breast cancer MCF-7, lung cancer A549, ovary cancer SK-OV-3, and prostate cancer PC-3) in accordance with our previously established protocols.

[2] = test system: Schizosaccharomyces pombe DSM 70572; experiment: MIC serial dilution assay; design: key: (-): No inhibition
Protocol: as §1

[3] = test system: Pseudomonas aeruginosa PA14; experiment: MIC serial dilution assay; design: key: (-): No inhibition
Protocol: as §1

[4] = test system: Candida albicans DSM 1665; experiment: MIC serial dilution assay; design: key: (-): No inhibition; settings: starting concentration 66.7 μg/mL
Protocol: as §1

[5] = test system: Acinetobacter baumannii DSM 30008; experiment: MIC serial dilution assay; design: key: (-): No inhibition; settings: Acinetobacter baumanii, starting concentration 66.7 μg/mL
Protocol: as §1

[6] = test system: Escherichia coli DSM 1116; experiment: MIC serial dilution assay; design: key: (-): No inhibition; settings: starting concentration 66.7 μg/mL
Protocol: as §1

[7] = test system: Staphylococcus aureus DSM 346; experiment: MIC serial dilution assay; design: key: (-): No inhibition
Protocol: as §1

[8] = test system: Wickerhamomyces anomalus DSM 6766; experiment: MIC serial dilution assay; design: key: (-): No inhibition; settings: starting concentration 66.7 μg/mL
Protocol: as §1

Mucor hiemalis DSM 2656 = experiment: MIC serial dilution assay; design: key: (-): No inhibition
Protocol: as §1

[9] = test system: Chromobacterium violaceum DSM 30191; experiment: MIC serial dilution assay; design: key: (-): No inhibition; settings: starting concentration 66.7 μg/mL
Protocol: as §1

Bacillus subtilis DSM 10 = experiment: MIC serial dilution assay; design: key: (-): No inhibition
Protocol: as §1

[10] = test system: Mycobacterium smegmatis ATCC 700084; experiment: MIC serial dilution assay; design: key: (-): No inhibition
Protocol: as §1

[11] = test system: human endocervical adenocarcinoma KB 3.1; experiment: MTT-based cytotoxicity assay
Protocol: as §1

mouse fibroblasts L929 = experiment: MTT-based cytotoxicity assay
Protocol: as §1

[12] = test system: panel of bacteria and fungi; experiment: Antimicrobial serial dilution assay, whole panel; settings: result in words
Protocol: as §1

squamous cancer A431 = experiment: MTT-based cytotoxicity assay
Protocol: as §1

prostate cancer PC-3 = experiment: MTT-based cytotoxicity assay
Protocol: as §1

lung cancer A549 = experiment: MTT-based cytotoxicity assay
Protocol: as §1

breast cancer MCF-7 = experiment: MTT-based cytotoxicity assay
Protocol: as §1

ovary cancer SK-OV-3 = experiment: MTT-based cytotoxicity assay
Protocol: as §1

[13] = starting concentration 66.7 μg/mL
[14] = Homo sapiens, KB 3-1, KB3.1, starting concentration 37 µg/mL, read-out: IC50
[15] = Mus musculus, starting concentration 37 µg/mL, read-out: IC50
[16] = Rhodotorula glutinis, DSM10134, read-out: MIC
[17] = DSM70572, starting concentration 66.7 μg/mL, read-out: MIC
[18] = DSM346, starting concentration 66.7 μg/mL, read-out: MIC
[19] = DSM2656, starting concentration 66.7 μg/mL, read-out: MIC
[20] = DSM10, starting concentration 66.7 μg/mL, read-out: MIC
[21] = PC-3, starting concentration 37 µg/mL, read-out: IC50
[22] = starting concentration 37 µg/mL, read-out: IC50

Row | Compound | MIC [1] | MIC [2, 13] | MIC [3, 13] | MIC [4] | MIC [5] | MIC [6] | MIC [8] | MIC [9] | MIC [10, 13] | IC50 [11, 14] [nM] | IC50 (mouse fibroblasts L929; [15]) [nM] | MIC [7, 18] [µg/mL] | MIC (Mucor hiemalis DSM 2656; [19]) [µg/mL] | MIC (Bacillus subtilis DSM 10; [20]) [µg/mL] | further results
1 | CC(C)=CCc1ccc(O)c2c1C(O)(c1cc(C)cc3c1OC(C(C)(C)O)CO3)OC2=O (centres unmarked) [Compound 2, isoprenylisobenzofuran B] | - | - | - | - | - | - | - | - | - | > 84000 | > 84000 |  |  |  | MIC [7, 13]: -; MIC (Mucor hiemalis DSM 2656; [13]): -; MIC (Bacillus subtilis DSM 10; [13]): -; IC50 ([11]; KB3.1, starting concentration 37 µg/mL): slight inhibition; antimicrobial activity against the tested microorganisms [12]: no activity
2 | CC(C)=CCc1ccc(O)c2c1C(O)(c1cc(C)cc3c1O[C@H](C(C)(C)O)CO3)NC2=O (some centres unmarked) [Compound 4, diaporisoindole F1/F2] |  |  | - | - | - | - | - | - | - | 31900 | 59200 | 66.6 (≈ 152 µM) | 33.3 (≈ 75.8 µM) | 66.6 (≈ 152 µM) | MIC [1, 16]: 33.3 µg/mL (≈ 75.8 µM); MIC [2, 17]: 33.3 µg/mL (≈ 75.8 µM)
3 | NC[C@H]1O[C@H](O[C@H]2[C@H](O)[C@@H](O[C@H]3O[C@H](CO)[C@@H](O)[C@H](N)[C@H]3O)[C@H](N)C[C@@H]2N)[C@H](O)[C@@H](O)[C@@H]1O [Kanamycin, reference compound] |  |  |  |  |  |  |  |  | 1.7 ^k µg/mL |  |  |  |  |  | 
4 | CC(C)=CCc1ccc(O)c2c1C(c1cc(C)cc3c1O[C@H](C(C)(C)O)CO3)NC2=O (mixture of isomers) [Compound 5, diaporisoindole A/B] |  |  | - | - | - | - | - | - | - | 22000 | 54400 | 66.6 | 66.6 | 66.6 | MIC [1, 16]: 66.6 µg/mL; MIC [2, 17]: 33.3 µg/mL
5 | C/C(=C\c1csc(C)n1)[C@@H]1C[C@@H]2O[C@]2(C)CCC[C@H](C)[C@H](O)[C@@H](C)C(=O)C(C)(C)[C@@H](O)CC(=O)O1 [Epothilone B, reference compound] |  |  |  |  |  |  |  |  |  |  |  |  |  |  | IC50 (squamous cancer A431; Homo sapiens, A-431): 0.055 nM; IC50 ([11]; Homo sapiens, KB 3-1): 0.045 nM; IC50 (mouse fibroblasts L929; Mus musculus): 0.43 nM; IC50 (prostate cancer PC-3): 0.073 nM; IC50 (lung cancer A549; Homo sapiens): 0.069 nM; IC50 (breast cancer MCF-7; Homo sapiens, MCF7): 0.061 nM; IC50 (ovary cancer SK-OV-3; Homo sapiens, SK-OV-3): 0.099 nM
6 | CN(C)[C@@H]1C(=O)C(C(N)=O)=C(O)[C@@]2(O)C(=O)C3=C(O)c4c(O)cccc4[C@@](C)(O)[C@H]3[C@H](O)[C@@H]12 [Oxytetracyclin, reference compound] |  |  |  |  |  | 1.7 ^o µg/mL |  | 0.83 ^o µg/mL |  |  |  |  |  |  | MIC [7, 13]: 0.83 ^o µg/mL; MIC (Bacillus subtilis DSM 10; [13]): 8.3 ^o µg/mL
7 | CCC(C)C=C(C)C=CC1=CC2=C(Cl)C(=O)C3(C)OC(=O)C(C(C)O)C3C2=CO1 (centres unmarked) [Compound 7, isochromophilonol A1/A2] | - | - | - | - | - | - | - | - |  | 5300 | 12900 | 66.6 (≈ 159 µM) | 8.3 (≈ 19.8 µM) | 16.6 (≈ 39.6 µM) | MIC ([10]; Mycolicibacterium smegmatis, ATCC700084, starting concentration 66.7 μg/mL, read-out: MIC): 16.6 µg/mL (≈ 39.6 µM); IC50 (squamous cancer A431; Homo sapiens, A-431, A431, starting concentration 37 µg/mL, read-out: IC50): 4100 nM; IC50 (prostate cancer PC-3; [21]): 1100 nM; IC50 (lung cancer A549; Homo sapiens, starting concentration 37 µg/mL, read-out: IC50): 2300 nM; IC50 (breast cancer MCF-7; Homo sapiens, MCF7, MCF-7, starting concentration 37 µg/mL, read-out: IC50): 900 nM; IC50 (ovary cancer SK-OV-3; Homo sapiens, SK-OV-3, SKOV-3, starting concentration 37 µg/mL, read-out: IC50): 3300 nM
8 | O=C(O)c1cn(C2CC2)c2cc(N3CCNCC3)c(F)cc2c1=O [Ciprobay, reference compound] |  |  |  |  |  |  |  |  |  |  |  |  |  |  | MIC ([5]; Acinetobacter baumannii, DSM30008, read-out: MIC): 0.26 µg/mL (≈ 0.785 µM)
9 | CNC(C)C1CCC(N)C(OC2C(N)CC(N)C(OC3OCC(C)(O)C(NC)C3O)C2O)O1 (centres unmarked) [Gentamicin, reference compound] |  |  |  |  |  |  |  |  |  |  |  |  |  |  | MIC ([3]; PA14, starting concentration 66.7 μg/mL, read-out: MIC): 0.21 µg/mL (≈ 0.44 µM)
10 | beauvericin [Compound 8] | 66.6 µg/mL | 33.3 µg/mL | - | - | - | - | - | - | 8.3 µg/mL |  |  |  |  |  | MIC [7, 13]: 8.3 µg/mL; MIC (Mucor hiemalis DSM 2656; [13]): 66.6 µg/mL; MIC (Bacillus subtilis DSM 10; [13]): 8.3 µg/mL; IC50 (squamous cancer A431; A431, starting concentration 37 µg/mL, read-out: IC50): 2400 nM; IC50 ([11]; KB3.1, starting concentration 37 µg/mL, read-out: IC50): 2300 nM; IC50 (mouse fibroblasts L929; [22]): 2800 nM; IC50 (prostate cancer PC-3; [21]): 1900 nM; IC50 (lung cancer A549; [22]): 2600 nM; IC50 (breast cancer MCF-7; MCF-7, starting concentration 37 µg/mL, read-out: IC50): 2000 nM; IC50 (ovary cancer SK-OV-3; SKOV-3, starting concentration 37 µg/mL, read-out: IC50): 3300 nM
11 | C[C@@H]1[C@H](O)[C@@H](C)/C=C/C=C/CC/C=C/C=C/C=C/C=C/C(O[C@H]2O[C@H](C)[C@@H](O)[C@H](N)[C@@H]2O)CC2O[C@](O)(CC(O)C(O)CCC(O)CC(O)CC(O)CC(=O)O[C@H]1C)CC(O)C2C(=O)O (some centres unmarked) [Nystatin, reference compound] | 4.2 ^n µg/mL | 8.3 ^n µg/mL |  | 16.6 ^n µg/mL |  |  | 8.3 ^n µg/mL |  |  |  |  |  |  |  | MIC (Mucor hiemalis DSM 2656; [13]): 8.3 ^n µg/mL; MIC (Mucor hiemalis DSM 2656; starting concentration 66.7 μg/mL, listed as nystatin): 8.3 µg/mL (≈ 8.96 µM)
12 | CC(C)=CCc1ccc(O)c2c1C(O)(c1cc(C)cc3c1O[C@H](C(C)(C)O)CO3)OC2 (mixture of isomers) [Compound 3, isoprenylisobenzofuran C1/C2] | - | - | - | - | - | - | - | - | - | 32900 | 51600 | 33.3 | 66.6 | 33.3 | 

Reference: article PMC10381184, “Unprecedented Antimicrobial and Cytotoxic Polyketides from Cultures of Diaporthe africana sp. nov” (Journal of Fungi, 2023)
